# Patent publication US20260285850A1, “SUBSTITUTED OXAZOLIDINONES AND IMIDAZOLINONES AS HERBICIDES” (FMC CORPORATION, priority 2023, published 2026)
# How the values were obtained:
# Assay type in all cases: in vivo
# [1] = test system: barnyardgrass (Echinochloa crus-galli); experiment: Test A preemergence soil spray, visual injury rating 0-100; conditions: 10 days
# In short: (§1)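 Directed preemergence spray onto seeded soil or postemergence spray onto 2-10 cm plants (loam plus sand); compound carried in surfactant-containing non-phytotoxic solvent. Injury rated by eye after 10 d greenhouse growth; 0 = no effect, 100 = complete control.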
# [2] = test system: blackgrass (Alopecurus myosuroides); experiment: as above; conditions: 10 days
# In short: as §1
# corn (Zea mays) [3] = experiment: as above; conditions: 10 days
# In short: as §1
# [4] = test system: green foxtail (Setaria viridis); experiment: as above; conditions: 10 days
# In short: as §1
# kochia (Bassia scoparia) [5] = experiment: as above; conditions: 10 days
# In short: as §1
# [6] = test system: oat, wild (wild oat, Avena fatua); experiment: as above; conditions: 10 days
# In short: as §1
# [7] = test system: palmer (palmer amaranth, palmer pigweed, Amaranthus palmeri); experiment: as above; conditions: 10 days
# In short: as §1
# [8] = test system: ragweed (common ragweed, Ambrosia artemisiifolia); experiment: as above; conditions: 10 days
# In short: as §1
# [9] = test system: ryegrass, Italian (italian ryegrass, Lolium multiflorum); experiment: as above; conditions: 10 days
# In short: as §1
# soybean (Glycine max) [10] = experiment: as above; conditions: 10 days
# In short: as §1
# [11] = test system: wheat (Triticum aestivum); experiment: as above; conditions: 10 days
# In short: as §1
# [12] = test system: barnyardgrass (Echinochloa crus-galli); experiment: Test A postemergence application, visual injury rating 0-100
# In short: as §1
# [13] = test system: blackgrass (Alopecurus myosuroides); experiment: as above
# In short: as §1
# corn (Zea mays) [14] = experiment: as above
# In short: as §1
# [15] = test system: galium (catchweed bedstraw, Galium aparine); experiment: as above
# In short: as §1
# [16] = test system: green foxtail (Setaria viridis); experiment: as above
# In short: as §1
# [17] = test system: horseweed (Erigeron canadensis); experiment: as above
# In short: as §1
# kochia (Bassia scoparia) [18] = experiment: as above
# In short: as §1
# [19] = test system: oat, wild (wild oat, Avena fatua); experiment: as above
# In short: as §1
# [20] = test system: palmer (palmer amaranth, palmer pigweed, Amaranthus palmeri); experiment: as above
# In short: as §1
# [21] = test system: ragweed (common ragweed, Ambrosia artemisiifolia); experiment: as above
# In short: as §1
# [22] = test system: ryegrass, Italian (italian ryegrass, Lolium multiflorum); experiment: as above
# In short: as §1
# soybean (Glycine max) [23] = experiment: as above
# In short: as §1
# [24] = test system: wheat (Triticum aestivum); experiment: as above
# In short: as §1
# [25] = test system: barnyardgrass (Echinochloa crusgalli); experiment: Test B flooded paddy test, visual plant response rating 0-100; conditions: 250 g ai/ha, Flood, applied to paddy water, evaluated after 13 days
# In short: (§2)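 2-leaf plants; flood 3 cm over soil; compound dosed into paddy water; depth kept constant; greenhouse 13 d; visual scoring vs controls. Dash = no result.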
# [26] = test system: ducksalad (Heteranthera limosa); experiment: as above; conditions: 250 g ai/ha, Flood, applied to paddy water, evaluated after 13 days
# In short: as §2
# rice (Oryza sativa) = experiment: as above; conditions: 250 g ai/ha, Flood, applied to paddy water, evaluated after 13 days
# In short: as §2
# [27] = test system: sedge, umbrella (small-flower umbrella sedge, Cyperus difformis); experiment: as above; conditions: 250 g ai/ha, Flood, applied to paddy water, evaluated after 13 days
# In short: as §2
# [28] = 62 g ai/ha, 0 = no effect, 100 = complete control
# [29] = 62 g ai/ha, postemergence, 10 days, 0 = no effect, 100 = complete control
# [30] = Postemergence, 16 g ai/ha, greenhouse 10 days, 0 no effect, 100 complete control
structure (smiles),measurement,setting,value
CC1(C(=O)NC2CC=C(C(=O)O)C2)CN(c2cc(F)cc(F)c2)C(=O)O1 (stereo not shown) [Compound 94],Barnyardgrass plant response rating,"[1]; 16 g ai/ha, 0 to 100 scale",40
same,Barnyardgrass plant response rating (0-100),[1]; [28],100
same,Blackgrass plant response rating,"[2]; 16 g ai/ha, 0 to 100 scale",30
same,Blackgrass plant response rating (0-100),[2]; [28],60
same,Corn plant response rating,"corn (Zea mays) [3]; 16 g ai/ha, 0 to 100 scale",40
same,Corn plant response rating (0-100),corn (Zea mays) [3]; [28],80
same,"Foxtail, Green plant response rating","[4]; 16 g ai/ha, 0 to 100 scale",10
same,"Foxtail, Green plant response rating (0-100)",[4]; [28],90
same,Kochia plant response rating,"kochia (Bassia scoparia) [5]; 16 g ai/ha, 0 to 100 scale",0
same,Kochia plant response rating (0-100),kochia (Bassia scoparia) [5]; [28],90
same,"Oat, Wild plant response rating","[6]; 16 g ai/ha, 0 to 100 scale",10
same,"Oat, Wild plant response rating (0-100)",[6]; [28],50
same,"Pigweed, Palmer plant response rating","[7]; 16 g ai/ha, 0 to 100 scale",20
same,"Pigweed, Palmer plant response rating (0-100)",[7]; [28],60
same,Ragweed plant response rating,"[8]; 16 g ai/ha, 0 to 100 scale",20
same,Ragweed plant response rating (0-100),[8]; [28],40
same,"Ryegrass, Italian plant response rating","[9]; 16 g ai/ha, 0 to 100 scale",60
same,"Ryegrass, Italian plant response rating (0-100)",[9]; [28],70
same,Soybean plant response rating,"soybean (Glycine max) [10]; 16 g ai/ha, 0 to 100 scale",10
same,Soybean plant response rating (0-100),soybean (Glycine max) [10]; [28],30
same,Wheat plant response rating,"[11]; 16 g ai/ha, 0 to 100 scale",60
same,Wheat plant response rating (0-100),[11]; [28],90
same,Barnyardgrass plant response rating (0-100),[12]; [29],100
same,Barnyardgrass plant response rating (0 to 100 scale),[12]; [30],100
same,Blackgrass plant response rating (0-100),[13]; [29],90
same,Blackgrass plant response rating (0 to 100 scale),[13]; [30],80
same,Corn plant response rating (0-100),corn (Zea mays) [14]; [29],100
same,Corn plant response rating (0 to 100 scale),corn (Zea mays) [14]; [30],100
same,Galium plant response rating (0-100),[15]; [29],90
same,Galium plant response rating (0 to 100 scale),[15]; [30],70
same,"Foxtail, Green plant response rating (0-100)",[16]; [29],90
same,"Foxtail, Green plant response rating (0 to 100 scale)",[16]; [30],60
same,Horseweed plant response rating (0-100),[17]; [29],60
same,Horseweed plant response rating (0 to 100 scale),[17]; [30],20
same,Kochia plant response rating (0-100),kochia (Bassia scoparia) [18]; [29],90
same,Kochia plant response rating (0 to 100 scale),kochia (Bassia scoparia) [18]; [30],80
same,"Oat, Wild plant response rating (0-100)",[19]; [29],90
same,"Oat, Wild plant response rating (0 to 100 scale)",[19]; [30],40
same,"Pigweed, Palmer plant response rating (0-100)",[20]; [29],90
same,"Pigweed, Palmer plant response rating (0 to 100 scale)",[20]; [30],50
same,Ragweed plant response rating (0-100),[21]; [29],50
same,Ragweed plant response rating (0 to 100 scale),[21]; [30],50
same,"Ryegrass, Italian plant response rating (0-100)",[22]; [29],90
same,"Ryegrass, Italian plant response rating (0 to 100 scale)",[22]; [30],70
same,Soybean plant response rating (0-100),soybean (Glycine max) [23]; [29],70
same,Soybean plant response rating (0 to 100 scale),soybean (Glycine max) [23]; [30],60
same,Wheat plant response rating (0-100),[24]; [29],90
same,Wheat plant response rating (0 to 100 scale),[24]; [30],60
same,"Plant response rating, Barnyardgrass (0 to 100 scale, 0 is no effect and 100 is complete control)",[25],95
same,"Plant response rating, Ducksalad (0 to 100 scale, 0 is no effect and 100 is complete control)",[26],95
same,"Plant response rating, Rice (0 to 100 scale, 0 is no effect and 100 is complete control)",rice (Oryza sativa),75
same,"Plant response rating, Sedge, Umbrella (0 to 100 scale, 0 is no effect and 100 is complete control)",[27],95
